pIC50: −log10 of the molar value.
molecular target: T1, human type 1 glycine transporter (GlyT1) (Homo sapiens, UniProt P48067); experiment: Glycine uptake inhibition experiment ([3H]glycine uptake); type: cell-based; settings: GlyT1
T1 construct: T98G cells (glioma cells) expressing human type 1 glycine transporter (GlyT1) were used
T1 sequence (P48067 1-706): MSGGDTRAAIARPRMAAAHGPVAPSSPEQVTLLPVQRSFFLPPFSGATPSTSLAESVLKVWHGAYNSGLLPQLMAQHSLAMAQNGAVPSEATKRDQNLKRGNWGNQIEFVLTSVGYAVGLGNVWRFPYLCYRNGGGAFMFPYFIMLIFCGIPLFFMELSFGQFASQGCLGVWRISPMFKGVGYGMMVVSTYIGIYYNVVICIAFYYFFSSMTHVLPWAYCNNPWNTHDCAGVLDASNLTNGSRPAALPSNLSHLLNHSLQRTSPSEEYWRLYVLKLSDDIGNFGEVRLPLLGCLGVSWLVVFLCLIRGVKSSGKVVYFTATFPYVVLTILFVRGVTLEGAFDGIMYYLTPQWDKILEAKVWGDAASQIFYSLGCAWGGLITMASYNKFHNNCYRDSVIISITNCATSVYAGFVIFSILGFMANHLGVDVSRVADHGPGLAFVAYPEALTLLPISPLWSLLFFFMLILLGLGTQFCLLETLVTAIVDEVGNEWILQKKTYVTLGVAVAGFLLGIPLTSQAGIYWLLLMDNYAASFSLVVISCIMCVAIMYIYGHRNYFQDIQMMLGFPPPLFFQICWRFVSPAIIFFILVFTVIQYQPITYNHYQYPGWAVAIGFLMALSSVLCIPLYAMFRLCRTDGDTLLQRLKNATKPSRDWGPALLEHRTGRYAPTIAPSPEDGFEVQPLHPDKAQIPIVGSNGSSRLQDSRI
Summary of the method: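 T98G glioma cells expressing human GlyT1 were pretreated 10 min with compound in HEPES buffer pH 7.4 (0.2% BSA), then incubated with compound plus 250 nM final [3H]glycine for 15 min at room temperature. Intracellular radioactivity was counted after NaOH lysis; 10 μM ALX5407 defined non-specific uptake. IC50 came from 10^−9–10^−5 M curves.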

| pIC50 | Structure (SMILES) |
| --- | --- |
| 7.25 | O=C(NC(c1cc(Cl)ccn1)[C@]1(O)CC[C@@H](F)CC1)c1ccnc(C(F)(F)F)c1Cl (single isomer, unassigned) [Compound 330, 3-chloro-N-[(4-chloropyridin-2-yl)(cis-4-fluoro-1-hydroxycyclohexyl)methyl]-2-(trifluoromethyl)pyridine-4-carboxamide] |
| 7.06 | O=C(NC(c1cc(Cl)ccn1)[C@]1(O)CC[C@@H](F)CC1)c1cccc(C(F)(F)F)c1Cl (single isomer, unassigned) [Compound 331, 2-chloro-N-[(4-chloropyridin-2-yl)(cis-4-fluoro-1-hydroxycyclohexyl)methyl]-3-(trifluoromethyl)benzamide] |
| 5.85 | O=C(NC(c1cc(Cl)ccn1)[C@]1(O)CC[C@@H](F)CC1)c1nccc(C(F)F)c1Cl (single isomer, unassigned) [Compound 332, 3-chloro-N-[(4-chloropyridin-2-yl)(cis-4-fluoro-1-hydroxycyclohexyl)methyl]-4-(difluoromethyl)pyridine-2-carboxamide] |
| 5.77 | O=C(NC(c1cc(Cl)ccn1)[C@]1(O)CC[C@@H](F)CC1)c1cc(C(F)(F)F)ncc1Cl (single isomer, unassigned) [Compound 333, 5-chloro-N-[(4-chloropyridin-2-yl)(cis-4-fluoro-1-hydroxycyclohexyl)methyl]-2-(trifluoromethyl)pyridine-4-carboxamide] |
| 6.05 | O=C(NC(c1cc(Cl)ccn1)[C@]1(O)CC[C@@H](F)CC1)c1nccc2ccccc12 (single isomer, unassigned) [Compound 334, N-[(4-chloropyridin-2-yl)(cis-4-fluoro-1-hydroxycyclohexyl)methyl]isoquinoline-1-carboxamide] |
| 6.57 | O=C(NC(c1cc(Cl)ccn1)[C@]1(O)CC[C@@H](F)CC1)c1ccc(C(F)(F)F)nc1Cl (single isomer, unassigned) [Compound 335, 2-chloro-N-[(4-chloropyridin-2-yl)(cis-4-fluoro-1-hydroxycyclohexyl)methyl]-6-(trifluoromethyl)pyridine-3-carboxamide] |
| 6.16 | O=C(NC(c1cccc(F)c1Cl)[C@]1(O)CC[C@@H](F)CC1)c1cc(-n2nccn2)ccc1Cl (single isomer, unassigned) [Compound 336, 2-chloro-N-[(2-chloro-3-fluorophenyl)(cis-4-fluoro-1-hydroxycyclohexyl)methyl]-5-(2H-1,2,3-triazol-2-yl)benzamide] |
| 5.72 | O=C(NC(c1cccc(F)c1Cl)[C@]1(O)CC[C@@H](F)CC1)c1cc(-n2ccnn2)ccc1Cl (single isomer, unassigned) [Compound 337, 2-chloro-N-[(2-chloro-3-fluorophenyl)(cis-4-fluoro-1-hydroxycyclohexyl)methyl]-5-(1H-1,2,3-triazol-1-yl)benzamide] |
| 7.02 | O=C(NC(c1cccc(Cl)n1)[C@]1(O)CC[C@@H](F)CC1)c1ccnc(C(F)(F)F)c1Cl (single isomer, unassigned) [Compound 338, 3-chloro-N-[(6-chloropyridin-2-yl)(cis-4-fluoro-1-hydroxycyclohexyl)methyl]-2-(trifluoromethyl)pyridine-4-carboxamide] |
| 6.85 | O=C(NC(c1cccc(Cl)n1)[C@]1(O)CC[C@@H](F)CC1)c1ccc(C(F)(F)F)nc1Cl (single isomer, unassigned) [Compound 339, 2-chloro-N-[(6-chloropyridin-2-yl)(cis-4-fluoro-1-hydroxycyclohexyl)methyl]-6-(trifluoromethyl)pyridine-3-carboxamide] |
| 6.49 | O=C(NC(c1cccnc1Cl)C1(O)CCC(F)(F)CC1)c1nccc(C(F)(F)F)c1Cl (single isomer, unassigned) [Compound 340, 3-chloro-N-[(2-chloropyridin-3-yl)(4,4-difluoro-1-hydroxycyclohexyl)methyl]-4-(trifluoromethyl)pyridine-2-carboxamide] |
| 6.07 | O=C(NC(c1cccnc1Cl)C1(O)CCC(F)(F)CC1)c1ccnc(C(F)(F)F)c1Cl (single isomer, unassigned) [Compound 341, 3-chloro-N-[(2-chloropyridin-3-yl)(4,4-difluoro-1-hydroxycyclohexyl)methyl]-2-(trifluoromethyl)pyridine-4-carboxamide] |
| 5.92 | O=C(NC(c1cccnc1Cl)C1(O)CCC(F)(F)CC1)c1cc(C(F)(F)F)ncc1Cl (single isomer, unassigned) [Compound 342, 5-chloro-N-[(2-chloropyridin-3-yl)(4,4-difluoro-1-hydroxycyclohexyl)methyl]-2-(trifluoromethyl)pyridine-4-carboxamide] |
| 5.64 | O=C(NC(c1cccnc1Cl)C1(O)CCC(F)(F)CC1)c1ccc(C(F)(F)F)nc1Cl (single isomer, unassigned) [Compound 344, 2-chloro-N-[(2-chloropyridin-3-yl)(4,4-difluroo-1-hydroxycyclohexyl)methyl]-6-(trifluoromethyl)pyridine-3-carboxamide] |
| 6.57 | O=C(NC(c1cc(Cl)ccn1)C1(O)CCC(F)(F)CC1)c1nccc(C(F)(F)F)c1Cl (single isomer, unassigned) [Compound 345, 3-chloro-N-[(4-chloropyridin-2-yl)(4,4-difluoro-1-hydroxycyclohexyl)methyl]-4-(trifluoromethyl)pyridine-2-carboxamide] |
| 6.44 | O=C(NC(c1cc(Cl)ccn1)C1(O)CCC(F)(F)CC1)c1ccnc(C(F)(F)F)c1Cl (single isomer, unassigned) [Compound 346, 3-chloro-N-[(4-chloropyridin-2-yl)(4,4-difluoro-1-hydroxycyclohexyl)methyl]-2-(trifluoromethyl)pyridine-4-carboxamide] |
| 6.42 | O=C(NC(c1cccc(Cl)n1)C1(O)CCC(F)(F)CC1)c1ccnc(C(F)(F)F)c1Cl (single isomer, unassigned) [Compound 347, 3-chloro-N-[(6-chloropyridin-2-yl)(4,4-difluoro-1-hydroxycyclohexyl)methyl]-2-(trifluoromethyl)pyridine-4-carboxamide] |
| 6.31 | O=C(NC(c1cc(Cl)ccn1)C1(O)CCC(F)(F)CC1)c1cc(C(F)(F)F)ncc1Cl (single isomer, unassigned) [Compound 348, 5-chloro-N-[(4-chloropyridin-2-yl)(4,4-difluoro-1-hydroxycyclohexyl)methyl]-2-(trifluoromethyl)pyridine-4-carboxamide] |
| 5.96 | O=C(NC(c1cc(Cl)ccn1)C1(O)CCC(F)(F)CC1)c1nccc2ccccc12 (single isomer, unassigned) [Compound 349, N-[(4-chloropyridin-2-yl)(4,4-difluoro-1-hydroxycyclohexyl)methyl]isoquinoline-1-carboxamide] |
| 6.21 | O=C(NC(c1cc(Cl)ccn1)C1(O)CCC(F)(F)CC1)c1ccc(C(F)(F)F)nc1Cl (single isomer, unassigned) [Compound 350, 2-chloro-N-[(4-chloropyridin-2-yl)(4,4-difluoro-1-hydroxycyclohexyl)methyl]-6-(trifluoromethyl)pyridine-3-carboxamide] |
| 6.82 | O=C(NC(c1cc(Cl)ccn1)C1(O)CCC(F)(F)CC1)c1cccc(C(F)(F)F)c1Cl (single isomer, unassigned) [Compound 351, 2-chloro-N-[(4-chloropyridin-2-yl)(4,4-difluoro-1-hydroxycyclohexyl)methyl]-3-(trifluoromethyl)benzamide] |
| 6.82 | O=C(NC(c1cccc(Cl)n1)C1(O)CCC(F)(F)CC1)c1cccc(C(F)(F)F)c1Cl (single isomer, unassigned) [Compound 352, 2-chloro-N-[(6-chloropyridin-2-yl)(4,4-difluoro-1-hydroxycyclohexyl)methyl]-3-(trifluoromethyl)benzamide] |
| 6.82 | O=C(NC(c1cccc(Cl)n1)C1(O)CCC(F)(F)CC1)c1cc(C(F)(F)F)ncc1Cl (single isomer, unassigned) [Compound 353, 5-chloro-N-[(6-chloropyridin-2-yl)(4,4-difluoro-1-hydroxycyclohexyl)methyl]-2-(trifluoromethyl)pyridine-4-carboxamide] |
| 6.66 | O=C(NC(c1cccc(Cl)n1)C1(O)CCC(F)(F)CC1)c1cc(C(F)(F)F)cnc1Cl (single isomer, unassigned) [Compound 354, 2-chloro-N-[(6-chloropyridin-2-yl)(4,4-difluoro-1-hydroxycyclohexyl)methyl]-5-(trifluoromethyl)pyridine-3-carboxamide] |
| 6.89 | O=C(NC(c1cccc(Cl)n1)C1(O)CCC(F)(F)CC1)c1nccc2ccccc12 (single isomer, unassigned) [Compound 355, N-[(6-chloropyridin-2-yl)(4,4-difluoro-1-hydroxycyclohexyl)methyl]isoquinoline-1-carboxamide] |

Source: patent US20160130278A1 (TAISHO PHARMACEUTICAL CO., LTD, priority 2013, published 2016)
